ChEMBL document CHEMBL1143511, “Antitubercular agents. Part 1: synthesis of phthalimido- and naphthalimido-linked phenazines as new prototype antitubercular agents” (2005)
In brackets after ≈: the same amount, converted by molar mass.

What was measured:
Format in all cases: functional
[1] = tested on: Mycobacterium tuberculosis; assay: Minimum inhibitory concentration tested against Mycobacterium tuberculosis sensitive clinical isolates; Range:1-2 ug/ml
Mycobacterium avium = assay: Minimum inhibitory concentration tested against Mycobacterium avium ATCC 49601
[2] = tested on: Mycobacterium intracellulare; assay: Minimum inhibitory concentration tested against Mycobacterium intracellular ATCC 13950
[3] = tested on: Mycobacterium tuberculosis; assay: Minimum inhibitory concentration tested against Mycobacterium tuberculosis H37Rv ATCC 27294
[4] = tested on: Mycobacterium tuberculosis; assay: Minimum inhibitory concentration tested against Mycobacterium tuberculosis sensitive clinical isolates
[5] = tested on: Mycobacterium tuberculosis; assay: Minimum inhibitory concentration tested against Mycobacterium tuberculosis sensitive clinical isolates; Range 8-16 ug/mL
[6] = tested on: Mycobacterium tuberculosis; assay: Minimum inhibitory concentration tested against Mycobacterium tuberculosis sensitive clinical isolates; Range:1-4 ug/ml
[7] = tested on: Mycobacterium tuberculosis; assay: Minimum inhibitory concentration tested against Mycobacterium tuberculosis sensitive clinical isolates; Range 0.125-0.25 ug/ml

Row | SMILES | MIC [1] | MIC (Mycobacterium avium) | MIC [2] | MIC [3] | MIC [4] | MIC [5] | MIC [6] | MIC [7]
1 | O=C1c2ccccc2C(=O)N1CCCCCCN1CCN(CC/N=c2/cc3n(-c4ccc(Cl)cc4)c4ccccc4nc-3cc2Nc2ccc(Cl)cc2)CC1 | 2 µg/mL (≈ 2.59 µM) | 16 µg/mL (≈ 20.7 µM) | 8 µg/mL (≈ 10.4 µM) | 1 µg/mL (≈ 1.29 µM) |  |  |  | 
2 | O=C1c2cccc3cccc(c23)C(=O)N1CCCN1CCN(CC/N=c2/cc3n(-c4ccc(Cl)cc4)c4ccccc4nc-3cc2Nc2ccc(Cl)cc2)CC1 |  | > 16 µg/mL | > 16 µg/mL | > 16 µg/mL | > 16 µg/mL |  |  | 
3 | O=C1c2ccccc2C(=O)N1CCCCN1CCN(CC/N=c2/cc3n(-c4ccc(Cl)cc4)c4ccccc4nc-3cc2Nc2ccc(Cl)cc2)CC1 |  | > 16 µg/mL | > 16 µg/mL | > 16 µg/mL | > 16 µg/mL |  |  | 
4 | O=C1c2cccc3cccc(c23)C(=O)N1CCCCCCN1CCN(CC/N=c2/cc3n(-c4ccc(Cl)cc4)c4ccccc4nc-3cc2Nc2ccc(Cl)cc2)CC1 |  | > 16 µg/mL | > 16 µg/mL | 16 µg/mL (≈ 19.4 µM) |  | 16 µg/mL (≈ 19.4 µM) |  | 
5 | O=C1c2cccc3cccc(c23)C(=O)N1CCCCCN1CCN(CC/N=c2/cc3n(-c4ccc(Cl)cc4)c4ccccc4nc-3cc2Nc2ccc(Cl)cc2)CC1 |  | > 16 µg/mL | > 16 µg/mL | > 16 µg/mL | > 16 µg/mL |  |  | 
6 | O=C1c2cccc3cccc(c23)C(=O)N1CCCCN1CCN(CC/N=c2/cc3n(-c4ccc(Cl)cc4)c4ccccc4nc-3cc2Nc2ccc(Cl)cc2)CC1 |  | > 16 µg/mL | > 16 µg/mL | > 16 µg/mL | > 16 µg/mL |  |  | 
7 | O=C1c2ccccc2C(=O)N1CCCCCN1CCN(CC/N=c2/cc3n(-c4ccc(Cl)cc4)c4ccccc4nc-3cc2Nc2ccc(Cl)cc2)CC1 |  | 16 µg/mL (≈ 21.1 µM) | 8 µg/mL (≈ 10.5 µM) | 1 µg/mL (≈ 1.32 µM) |  |  | 4 µg/mL (≈ 5.27 µM) | 
8 | O=C1c2ccccc2C(=O)N1CCCN1CCN(CC/N=c2/cc3n(-c4ccc(Cl)cc4)c4ccccc4nc-3cc2Nc2ccc(Cl)cc2)CC1 |  | > 16 µg/mL | > 16 µg/mL | > 16 µg/mL | > 16 µg/mL |  |  | 
9 | NNC(=O)c1ccncc1 [ISONIAZID] |  | > 16 µg/mL | 8 µg/mL (≈ 58.3 µM) | 0.25 µg/mL (≈ 1.82 µM) |  |  |  | 0.25 µg/mL (≈ 1.82 µM)
